Results as given in article PMC7835894 (Molecules, 2021).

Tested on: Caco-2
Experiment: MTT antiproliferation assay
Assay type: cell-based, human
Settings: Homo sapiens; Caco-2, MTT, 24 h, single agent, mean ± SEM
Protocol: The antiproliferation and cytotoxicity were assessed using 3-(4,5-dimethylthiazol-2-yl)-2,5-diphenyltetrazolium bromide (MTT, Serva) colorimetric assay. To investigate the antiproliferation, all cell lines were seeded at a density of 20,000 cells per well in 96-well plates and allowed to adhere overnight. […] These concentrations were prepared by diluting the stock solutions with serum-free culture media. The negative control cells were those treated with 0.1% DMSO solvent alone. The treated cells were handled in reduced light and maintained under standard culture growth conditions for 24 h. After the incubation period, MTT powder was prepared as a stock solution (5 mg/mL) and 20 μL of the MTT working reagent (final concentration 0.5 mg/mL) was added to each well. This was followed by incubation with MTT reagent for 4 h in a humidified atmosphere (37 °C, 5% CO2) with subsequent addition of 150 μL of DMSO solubilizing solvent and incubation for 20 min. The absorbance of solubilized violet formazan crystals was measured at 540 nm with Biotek 800 TS microplate reader. IC50 was calculated as the concentration of retinoid that produced 50% cell growth inhibition. For cytotoxicity assessment, WI-38 normal human fibroblast cells were used for the calculation of SI which is the ratio of IC50 retinoid (WI-38)/IC50 retinoid (cancer cell line).

O=c1[nH]cc(F)c(=O)[nH]1 [5-FU, 5-fluorouracil, reference compound]
IC50: 18.4 ± 0.6 µM
